Two compounds from ChEMBL document CHEMBL3414430 (J Med Chem, 2015) can be followed below.

Values after ≈ are worked out from the molar mass of the structure shown. Active and inactive are the calls of the source. No cut-off for these calls is given here.

The nature of data set [1]: Solubility of the compound in PBS measured after overnight incubation by LYSA assay. It is filed as physicochemical.
A short description of data set [2]: Intrinsic clearance in human liver microsomes at 1 uM preincubated for 10 mins followed by NADPH addition measured over 30 mins by LC-MS/MS analysis. It is filed as ADME. The conditions noted are these: read-out: CLH.
Data set [3] is described as follows: Intrinsic clearance in mouse liver microsomes at 1 uM preincubated for 10 mins followed by NADPH addition measured over 30 mins by LC-MS/MS analysis. It counts as ADME. Particulars: read-out: CLH.
Data set [4] in a line: Plasma clearance in ICR mouse. It counts as ADME, organism-based.
Data set [5] has as its system Mus musculus. Nature of the data set: AUC (0 to infinity) in ICR mouse at 10 mg/kg, iv. It counts as ADME, organism-based, Plasma. On the set-up: time infinity, dose 10 mg/kg, route intravenous. The conditions noted are these: in vivo.
Data set [6] can be described thus: Half life in ICR mouse at 10 mg/kg, iv. It counts as ADME, organism-based. Further details: dose 10 mg/kg, route intravenous. The conditions noted are these: in vivo.
Data set [7] concerns Mus musculus. Nature of the data set: AUC (0 to infinity) in ICR mouse at 100 mg/kg, po. The conditions noted are these: in vivo. It is filed as ADME, organism-based, Plasma. On the set-up: time infinity, dose 100 mg/kg, route oral.
A short description of data set [8]: Oral bioavailability in ICR mouse at 100 mg/kg. Particulars: in vivo. It counts as ADME, organism-based.
Another data set concerns the target Cytochrome P450 3A4 (Homo sapiens, UniProt P08684). Nature of the data set: Inhibition of CYP3A4 in human liver microsomes preincubated for 10 mins followed by NADPH addition measured after 30 mins by LC-MS/MS analysis. It counts as ADME.
The next data set concerns the target Cytochrome P450 2D6 (Homo sapiens, UniProt P10635). Nature of the data set: Inhibition of CYP2D6 in human liver microsomes preincubated for 10 mins followed by NADPH addition measured after 30 mins by LC-MS/MS analysis. It is filed as ADME.
Another data set addresses Cytochrome P450 2C9 (Homo sapiens, UniProt P11712). Nature of the data set: Inhibition of CYP2C9 in human liver microsomes preincubated for 10 mins followed by NADPH addition measured after 30 mins by LC-MS/MS analysis. It is filed as ADME.
The target of the next data set is Cytochrome P450 2C19 (Homo sapiens, UniProt P33261). Nature of the data set: Inhibition of CYP2C19 in human liver microsomes preincubated for 10 mins followed by NADPH addition measured after 30 mins by LC-MS/MS analysis. It counts as ADME.
In the next data set the target is T1, Cytochrome P450 1A2 (Homo sapiens, UniProt P05177).
T1 sequence (P05177 whole entry): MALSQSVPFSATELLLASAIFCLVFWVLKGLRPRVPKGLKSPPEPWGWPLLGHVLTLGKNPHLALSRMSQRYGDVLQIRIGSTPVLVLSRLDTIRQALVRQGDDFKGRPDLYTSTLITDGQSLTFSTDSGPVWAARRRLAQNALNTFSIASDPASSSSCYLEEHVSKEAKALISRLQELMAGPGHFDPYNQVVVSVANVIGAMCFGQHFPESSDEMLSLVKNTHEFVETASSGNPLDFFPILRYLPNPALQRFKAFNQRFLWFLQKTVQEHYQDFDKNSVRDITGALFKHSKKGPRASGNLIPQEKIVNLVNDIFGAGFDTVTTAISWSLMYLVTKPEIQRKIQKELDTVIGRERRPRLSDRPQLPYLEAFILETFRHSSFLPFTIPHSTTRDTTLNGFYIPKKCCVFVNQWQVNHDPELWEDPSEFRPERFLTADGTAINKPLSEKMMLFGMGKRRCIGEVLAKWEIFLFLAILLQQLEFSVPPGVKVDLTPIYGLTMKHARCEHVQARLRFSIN
Nature of the data set: Inhibition of CYP1A2 in human liver microsomes preincubated for 10 mins followed by NADPH addition measured after 30 mins by LC-MS/MS analysis. It counts as ADME.

Data set [9] can be described thus: Cmax in ICR mouse at 100 mg/kg, po. It counts as ADME, organism-based. Further details: dose 100 mg/kg, route oral. Particulars: in vivo.
For data set [10], the target named is T2, Protein deacetylase HDAC6 (Homo sapiens, UniProt Q9UBN7).
T2 sequence (Q9UBN7 whole entry): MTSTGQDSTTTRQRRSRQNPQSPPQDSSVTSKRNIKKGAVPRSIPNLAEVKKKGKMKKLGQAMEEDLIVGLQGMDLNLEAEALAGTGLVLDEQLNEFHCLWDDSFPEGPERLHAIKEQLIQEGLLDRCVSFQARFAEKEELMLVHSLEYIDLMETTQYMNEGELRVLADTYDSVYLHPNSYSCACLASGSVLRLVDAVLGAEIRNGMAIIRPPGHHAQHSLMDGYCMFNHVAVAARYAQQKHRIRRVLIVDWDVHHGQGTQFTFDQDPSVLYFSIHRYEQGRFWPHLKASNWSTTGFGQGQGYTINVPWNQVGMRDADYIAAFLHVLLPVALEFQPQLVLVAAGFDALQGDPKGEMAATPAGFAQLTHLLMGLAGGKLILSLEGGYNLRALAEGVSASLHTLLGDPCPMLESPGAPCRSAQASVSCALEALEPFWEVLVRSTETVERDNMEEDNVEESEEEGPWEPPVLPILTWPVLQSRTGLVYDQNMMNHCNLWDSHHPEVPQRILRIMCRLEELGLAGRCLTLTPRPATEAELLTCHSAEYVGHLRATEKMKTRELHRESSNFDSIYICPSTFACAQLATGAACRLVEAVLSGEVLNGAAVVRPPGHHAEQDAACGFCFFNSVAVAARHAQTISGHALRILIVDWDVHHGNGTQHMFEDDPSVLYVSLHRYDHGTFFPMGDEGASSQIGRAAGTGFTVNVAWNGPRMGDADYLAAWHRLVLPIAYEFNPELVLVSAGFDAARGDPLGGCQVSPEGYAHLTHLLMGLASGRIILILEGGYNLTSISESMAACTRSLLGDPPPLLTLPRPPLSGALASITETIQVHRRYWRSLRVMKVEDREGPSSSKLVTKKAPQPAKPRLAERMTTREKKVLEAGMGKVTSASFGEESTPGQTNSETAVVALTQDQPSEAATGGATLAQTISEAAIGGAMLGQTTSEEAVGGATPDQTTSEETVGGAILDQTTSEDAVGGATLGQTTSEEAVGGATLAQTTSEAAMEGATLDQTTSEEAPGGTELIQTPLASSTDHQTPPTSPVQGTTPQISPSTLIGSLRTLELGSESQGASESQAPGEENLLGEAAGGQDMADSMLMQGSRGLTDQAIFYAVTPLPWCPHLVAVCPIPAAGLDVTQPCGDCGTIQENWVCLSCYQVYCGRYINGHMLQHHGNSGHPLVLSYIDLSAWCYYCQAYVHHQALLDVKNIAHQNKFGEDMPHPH
Description: Inhibition of HDAC6 in human A549 cells assessed as induction of tubulin acetylation after 17 to 18 hrs by ELISA

Another data set deals with Histone deacetylase 1 (Homo sapiens, UniProt Q13547).
In data set [11] the target is T2, Protein deacetylase HDAC6. This is another data set of the same source.
Description: Inhibition of HDAC6 (unknown origin) using RHKK(Ac)AMC as substrate
The next data set concerns the target T3, Histone deacetylase 8 (Homo sapiens, UniProt Q9BY41).
T3 sequence (Q9BY41 whole entry): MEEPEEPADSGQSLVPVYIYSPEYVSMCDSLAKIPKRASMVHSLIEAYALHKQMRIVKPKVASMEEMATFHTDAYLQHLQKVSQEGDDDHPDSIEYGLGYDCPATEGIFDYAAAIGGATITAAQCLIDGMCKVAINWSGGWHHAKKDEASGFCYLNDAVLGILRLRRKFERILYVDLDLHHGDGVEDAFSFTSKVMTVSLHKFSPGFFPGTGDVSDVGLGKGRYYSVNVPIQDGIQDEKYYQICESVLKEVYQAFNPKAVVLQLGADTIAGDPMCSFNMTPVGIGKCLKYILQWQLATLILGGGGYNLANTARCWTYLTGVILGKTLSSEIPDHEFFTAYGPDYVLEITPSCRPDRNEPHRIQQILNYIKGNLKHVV

The test system of data set [12] is Mus musculus. Nature of the data set: AUC (0 to infinity) in ICR mouse at 25 mg/kg, iv. It counts as ADME, organism-based, Plasma. Further details: time infinity, dose 25 mg/kg, route intravenous. The conditions noted are these: in vivo.
In data set [13] the test system is Mus musculus. Nature of the data set: AUC (0 to infinity) in ICR mouse at 50 mg/kg, po. It is filed as ADME, organism-based, Plasma. On the set-up: time infinity, dose 50 mg/kg, route oral. Particulars: in vivo.
Data set [14] is described as follows: Oral bioavailability in ICR mouse at 50 mg/kg. It counts as ADME, organism-based. Particulars: in vivo.
Data set [15] can be described thus: Half life in ICR mouse at 25 mg/kg, iv. The conditions noted are these: in vivo. Further details: dose 25 mg/kg, route intravenous. It is filed as ADME, organism-based.
Data set [16] can be described thus: Cmax in ICR mouse at 50 mg/kg, po. It counts as ADME, organism-based. On the set-up: dose 50 mg/kg, route oral. Particulars: in vivo.
In data set [17] the target is Histone deacetylase 1/2/3/6 (Homo sapiens) (UniProt Q13547+O15379+Q9UBN7+Q92769). Particulars: HeLa, at 10 µM.
Histone deacetylase 1/2/3/6 (Homo sapiens), sequence (O15379 whole entry, looked up, one chain of several): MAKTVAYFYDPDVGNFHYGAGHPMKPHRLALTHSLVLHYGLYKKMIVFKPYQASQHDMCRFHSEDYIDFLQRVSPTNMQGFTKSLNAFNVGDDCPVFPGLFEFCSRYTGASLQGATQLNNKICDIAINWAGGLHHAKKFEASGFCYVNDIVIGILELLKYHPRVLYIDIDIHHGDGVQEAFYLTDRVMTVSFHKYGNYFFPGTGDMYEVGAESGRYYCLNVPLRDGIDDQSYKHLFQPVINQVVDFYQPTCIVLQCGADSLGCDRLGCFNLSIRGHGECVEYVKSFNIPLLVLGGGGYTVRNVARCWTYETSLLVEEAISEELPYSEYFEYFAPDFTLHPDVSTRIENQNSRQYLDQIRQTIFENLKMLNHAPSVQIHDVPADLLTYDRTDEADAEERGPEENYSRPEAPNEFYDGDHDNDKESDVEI
Histone deacetylase 1/2/3/6 (Homo sapiens), sequence (Q13547 whole entry, looked up, one chain of several): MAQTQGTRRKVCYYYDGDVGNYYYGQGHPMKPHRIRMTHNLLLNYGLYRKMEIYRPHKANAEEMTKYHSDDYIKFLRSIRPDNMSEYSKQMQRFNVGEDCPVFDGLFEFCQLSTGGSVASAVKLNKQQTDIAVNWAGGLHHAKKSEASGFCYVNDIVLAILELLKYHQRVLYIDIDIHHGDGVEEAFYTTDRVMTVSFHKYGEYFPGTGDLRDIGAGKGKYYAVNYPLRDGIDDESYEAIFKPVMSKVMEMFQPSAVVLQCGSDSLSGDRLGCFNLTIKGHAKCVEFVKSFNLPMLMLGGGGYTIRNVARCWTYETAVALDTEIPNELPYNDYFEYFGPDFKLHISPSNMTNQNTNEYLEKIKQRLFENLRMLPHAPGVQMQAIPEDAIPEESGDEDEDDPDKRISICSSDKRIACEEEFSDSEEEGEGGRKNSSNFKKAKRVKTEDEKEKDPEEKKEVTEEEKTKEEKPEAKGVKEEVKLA
Histone deacetylase 1/2/3/6 (Homo sapiens), sequence (Q92769 whole entry, looked up, one chain of several): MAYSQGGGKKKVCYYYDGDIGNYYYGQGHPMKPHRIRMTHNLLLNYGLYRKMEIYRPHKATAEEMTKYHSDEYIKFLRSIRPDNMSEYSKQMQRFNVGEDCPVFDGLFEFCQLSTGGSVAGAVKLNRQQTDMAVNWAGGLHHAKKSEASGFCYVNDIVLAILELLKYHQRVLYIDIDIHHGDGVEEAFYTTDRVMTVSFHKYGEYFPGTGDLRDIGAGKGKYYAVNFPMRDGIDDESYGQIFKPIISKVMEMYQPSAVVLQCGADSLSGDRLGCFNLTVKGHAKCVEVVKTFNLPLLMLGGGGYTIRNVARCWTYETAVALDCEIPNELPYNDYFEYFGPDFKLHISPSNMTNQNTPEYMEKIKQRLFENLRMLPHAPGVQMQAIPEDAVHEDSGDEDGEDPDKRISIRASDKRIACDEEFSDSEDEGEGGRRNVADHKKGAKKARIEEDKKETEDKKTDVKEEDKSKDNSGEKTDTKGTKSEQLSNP
Description: Inhibition of HDAC1/HDAC2/HDAC3 in human HeLa cells assessed as induction of p21 gene expression at 10 uM after 15 hrs by luciferase reporter gene assay relative to HDAC1 inhibitor SNDX-275

Histone deacetylase 1, sequence (Q13547 whole entry): as the sequence (Q13547 whole entry, looked up, one chain of several) above
Cytochrome P450 3A4, sequence (P08684 whole entry): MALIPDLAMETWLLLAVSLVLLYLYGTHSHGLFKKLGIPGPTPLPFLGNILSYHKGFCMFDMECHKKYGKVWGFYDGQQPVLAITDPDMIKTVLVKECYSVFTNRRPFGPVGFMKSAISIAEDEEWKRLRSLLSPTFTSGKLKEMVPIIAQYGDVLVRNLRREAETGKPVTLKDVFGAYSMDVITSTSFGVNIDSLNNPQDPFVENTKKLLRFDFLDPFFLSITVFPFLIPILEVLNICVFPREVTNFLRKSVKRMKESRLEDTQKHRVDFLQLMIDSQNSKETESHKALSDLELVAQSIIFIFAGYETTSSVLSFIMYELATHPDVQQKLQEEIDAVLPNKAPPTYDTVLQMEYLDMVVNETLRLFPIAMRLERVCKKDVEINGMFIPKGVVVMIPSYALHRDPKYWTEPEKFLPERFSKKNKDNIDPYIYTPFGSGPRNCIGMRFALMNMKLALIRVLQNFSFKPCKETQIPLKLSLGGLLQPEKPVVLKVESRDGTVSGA
Cytochrome P450 2C9, sequence (P11712 whole entry): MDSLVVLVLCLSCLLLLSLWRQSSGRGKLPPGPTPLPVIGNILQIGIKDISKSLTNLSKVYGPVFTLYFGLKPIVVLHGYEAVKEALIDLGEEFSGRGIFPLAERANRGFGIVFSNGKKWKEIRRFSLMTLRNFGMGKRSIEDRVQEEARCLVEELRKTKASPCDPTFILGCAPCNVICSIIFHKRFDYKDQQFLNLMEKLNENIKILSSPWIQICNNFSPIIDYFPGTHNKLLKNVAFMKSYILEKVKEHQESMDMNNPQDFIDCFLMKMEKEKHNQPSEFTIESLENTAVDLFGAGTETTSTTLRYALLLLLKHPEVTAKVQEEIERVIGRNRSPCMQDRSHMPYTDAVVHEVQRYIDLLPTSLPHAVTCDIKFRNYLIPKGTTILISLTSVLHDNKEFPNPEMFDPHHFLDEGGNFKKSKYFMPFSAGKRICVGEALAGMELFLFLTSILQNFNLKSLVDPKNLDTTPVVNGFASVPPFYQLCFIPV
Cytochrome P450 2C19, sequence (P33261 whole entry): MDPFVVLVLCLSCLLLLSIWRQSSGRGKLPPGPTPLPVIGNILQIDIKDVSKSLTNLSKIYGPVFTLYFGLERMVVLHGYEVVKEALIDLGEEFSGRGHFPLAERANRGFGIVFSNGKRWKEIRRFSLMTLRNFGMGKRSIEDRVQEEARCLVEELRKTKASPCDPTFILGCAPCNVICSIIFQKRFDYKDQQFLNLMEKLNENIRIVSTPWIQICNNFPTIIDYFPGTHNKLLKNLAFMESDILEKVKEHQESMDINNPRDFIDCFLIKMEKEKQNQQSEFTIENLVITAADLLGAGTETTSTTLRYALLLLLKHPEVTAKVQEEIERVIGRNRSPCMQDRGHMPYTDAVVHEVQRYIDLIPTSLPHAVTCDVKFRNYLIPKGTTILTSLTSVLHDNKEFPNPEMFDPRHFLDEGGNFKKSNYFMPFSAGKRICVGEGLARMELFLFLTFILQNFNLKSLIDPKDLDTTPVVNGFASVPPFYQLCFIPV
Cytochrome P450 2D6, sequence (P10635 whole entry): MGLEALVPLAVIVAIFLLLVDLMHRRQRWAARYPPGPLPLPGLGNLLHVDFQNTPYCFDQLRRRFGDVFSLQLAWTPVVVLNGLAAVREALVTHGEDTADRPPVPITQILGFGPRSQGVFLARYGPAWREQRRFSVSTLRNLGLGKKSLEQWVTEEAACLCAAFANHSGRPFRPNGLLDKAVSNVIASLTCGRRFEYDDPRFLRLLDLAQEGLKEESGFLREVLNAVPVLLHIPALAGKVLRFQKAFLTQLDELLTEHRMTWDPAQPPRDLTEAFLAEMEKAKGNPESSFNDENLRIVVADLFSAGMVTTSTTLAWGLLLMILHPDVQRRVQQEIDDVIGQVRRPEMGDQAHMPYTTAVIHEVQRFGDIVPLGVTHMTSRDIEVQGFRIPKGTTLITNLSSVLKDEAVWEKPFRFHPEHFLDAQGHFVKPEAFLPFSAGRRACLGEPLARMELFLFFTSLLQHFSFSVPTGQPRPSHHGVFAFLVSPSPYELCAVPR
Description for Histone deacetylase 8: Inhibition of HDAC8 (unknown origin) using RHK(Ac)K(Ac)AMC as substrate

For the compound `C[C@]1(Nc2ccc(C(=O)NO)cc2)CCN(c2ccc(Cl)cc2)C1=O`, the concentration in solution in [1] (solubility) came to 22 µg/mL (≈ 61.1 µM). Besides, the CLint scaled at 1 µM in data set [2] worked out at 3 mL/min/kg; in data set [3], 38 mL/min/kg. The compound also had a clearance in data set [4] of 87 mL/min/kg. Further, the AUC is 1900 µg/L/h in the data set on Mus musculus [5] and 10500 µg/L/h with Mus musculus [7]. The compound further gave a half-life in [6] of 2.1 h. The same compound showed a bioavailability in data set [8] of 55%. Further, the IC50 against Cytochrome P450 3A4 is > 50000 nM; on Cytochrome P450 2D6, > 50000 nM; against Cytochrome P450 2C9, > 50000 nM; on Cytochrome P450 2C19 it was > 50000 nM; against Cytochrome P450 1A2 it was > 50000 nM; at Histone deacetylase 1, 74100 nM. In addition, the IC50 in data set [11] was 17 nM; at Histone deacetylase 8 it was 180 nM. The peak level in [9] (Cmax) was 626 ng/mL. The EC50 in data set [10] was 300 nM.
As to `O=C(NO)c1ccc(NC2CCN(c3ccccc3)C2=O)cc1` (stereo unspecified), the solubility in data set [1] was 33 µg/mL (≈ 106 µM). The CLint scaled at 1 µM was determined as 4.6 mL/min/kg in data set [2] and 26 mL/min/kg in data set [3]. The compound also yielded a clearance in data set [4] of 108 mL/min/kg. Moreover, the AUC in the data set on Mus musculus [12] was 3850 µg/L/h; in the data set with Mus musculus [13] it was 125 µg/L/h. For the same compound, the bioavailability in data set [14] is ≤ 1%. Also, the half-life in [15] was 0.7 h. The same compound yielded a Cmax in data set [16] of 34 ng/mL. In addition, the figures for the IC50 (against Histone deacetylase 1; in data set [11]; at Histone deacetylase 8) were 19500 nM, 380 nM and 210 nM, respectively. Further, the inhibition entry in data set [17] is “inactive”.
